Test results as given in PubChem BioAssay AID1963835 (Molecular Pharmacology Branch, DTP, NCI, 2024).
Values joined by “and” are separate entries in the source; they are usually repeats but may differ in a detail not shown here. Identical values can stand only once.

Tested on: 699152-130-R-J1-PDC complex spheroid viability
Test: Anticancer human tumor 699152-130-R-J1-PDC patient-derived pancreatic carcinoma cell line growth inhibition [POLQ]
Conditions: for viability, T/C: stronger effect = lower value; active = viability on the fitted dose curve at most 10% of control; inactive = the rest
Description: Multicellular complex tumor spheroid response to Polymerase (POL) inhibitors (novobiocin, ART-558, RP6685) in combination with a variety of drugs and investigational agents in selected tumor cell lines
The POL inhibitors (novobiocin, ART-558, and RP6685) were evaluated both individually and in combination with standard of care and investigational anticancer small molecules within a complex spheroid model of solid tumors. . Complex spheroids include a stromal component modeled by human endothelial cells (HUVEC) and fibroblasts modeled by human mesenchymal stem cells (MSCs). The concentration ranges selected for each drug and investigational agent were based upon clinically achievable concentrations if the clinical Cmax of the agent was known.
Compounds. The drugs and investigational agents: novobiocin (NSC847541), ART-558 (NSC835418), RP-6685 (NSC848927), peposertib (NSC802822), ceralasertib (NSC780249), elimusertib (NSC800525), camonsertib (NSC841442), AZD-1390 (NSC803789), olaparib (NSC753686), talazoparib (NSC767125), rucaparib (NSC756644), sotorasib (NSC818433), MRTX-1133 (NSC836407), SN-38 (NSC673596), topotecan (NSC609699), epotoside (NSC141540), doxorubicin (NSC123127), gemcitabine (NSC613327), 5-fluorouracil (NSC19893), paclitaxel (NSC125973), vemurafenib (NSC761431), MSA-2 (NSC828583), SN-011 (NSC837082), adavosertib (NSC754352), prexasertib (NSC758257), carboplatin (NSC241240) and oxaliplatin (NSC266046), were obtained from the National Cancer Institute (NCI) Developmental Therapeutics Program Chemical Repository (21). The FDA-approved anticancer drug set is available from the Developmental Therapeutics Program at https://dtp.cancer.gov/organization/dscb/obtaining/. […] The stock solutions were prepared in dimethyl sulfoxide (DMSO, Sigma-Aldrich, St. Louis, MO, cat. D2650), except for the platinum compounds which were prepared in saline (Quality Biological, Gaithersburg, MD, cat. 114-055-101), at 800-fold the tested concentration and stored at -70 degrees C prior to their use. All drugs and investigational agents were tested over a range starting from a high concentration at or near the clinical Cmax and decreasing in half-log increments. If the clinical Cmax for an agent had not been determined, the highest concentration tested was 10 microM, except for SN-38, which was tested at a high concentration of 1 microM.
Cell Culture. All cells were maintained in an incubator at 37 degrees C and 5% CO2 with 95% humidity. The PDC lines were cultured according to standard operating procedures established by the NCI PDMR (https://pdmr.cancer.gov). Table 3 of the manuscript, lists the cell lines along with the number of the three cell types plated to form the mct-spheroids and media for tumor cell growth. After thawing, all PDC lines, except 997537-175-T-J1-PDC and 415267-285-R-J2-PDC, were cultured in Matrigel-coated flasks prepared with a working solution of 1X Ham's F-12 nutrient mix, without supplementation (Thermo Fisher Scientific, cat. 11765054), 100 U/mL penicillin-streptomycin (Thermo Fisher Scientific, cat. 15140122), and 2.5% Matrigel (Corning Inc., Corning, NY, cat. 354248) for the first three passages. The two PDC lines 997537-175-T-J1-PDC and 415267-285-R-J2-PDC were cultured on uncoated flasks. The 857933-349-R-J2-PDC line was cultured in 6C/Colon 1B media containing advanced DMEM/F-12 (Thermo Fisher Scientific, cat. 12634028), 10 mM HEPES (Thermo Fisher Scientific, cat. 15630080), 1X GlutaMAX supplement (Thermo Fisher Scientific, cat. 35050061), 0.1 mg/mL primocin (InvivoGen, San Diego, CA, cat. ant-pm-2), 10% defined fetal bovine serum, heat inactivated (HyClone Laboratories Inc., Logan, UT, cat. SH30070.03HI), 50% L-WRN conditioned media (ATCC, cat. CRL-3276), 1.25 mM N-Acetyl-L-cysteine (Sigma-Aldrich, cat. A9165), 10 mM nicotinamide (Sigma-Aldrich, cat. N0636), 1X B-27 supplement (Thermo Fisher Scientific, cat. 17504044), 1X N-2 supplement (Thermo Fisher Scientific, cat. […]

[1] = compound alone, run of 12/05/2023
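Note: spheroids exposed to agents for 7 days before viability reading.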
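Throughout, for viability, T/C: percent of DMSO vehicle control viability so 100% = vehicle and 0% = no viable signal.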

CCc1cc2c(N3CCc4c(cc(Cn5ccnc5)cc4-c4cn(C)nc4C(F)(F)F)C3=O)cc(C)nc2c(OC)n1
> 10 µM: IC50 (curve of compound)
inactive: viability, T/C (compound 0.0316 µM) 102% and 78.7% and 85.8% | viability, T/C (compound 0.1 µM) 92.1% and 90.3% and 81.5% | viability, T/C (compound 0.316 µM) 89.2% and 94.7% and 93.9% | viability, T/C (compound 1 µM) 95.1% and 94.6% and 98.4% | viability, T/C (compound 3.16 µM) 102% and 105% (2×) | viability, T/C (compound 10 µM) 97% and 99% and 107%

CC(C)n1c(=O)n(C)c2cnc3cc(F)c(-c4ccc(OCCCN5CCCCC5)nc4)cc3c21
inactive: viability, T/C (compound 0.0316 µM) 93.3% and 103% and 119% | viability, T/C (compound 0.1 µM) 88.1% and 91.7% and 92.8% | viability, T/C (compound 0.316 µM) 98.6% and 105% and 99.7% | viability, T/C (compound 1 µM) 110% and 102% and 97.5% | viability, T/C (compound 3.16 µM) 96.3% and 110% and 87.4% | viability, T/C (compound 10 µM) 87.1% and 91.8% and 85.5%
> 10 µM: IC50 (curve of compound)

Nc1ccc(C#CCN(C(=O)Cc2ncc(C(F)(F)F)cc2C(F)(F)F)c2ccc(F)cc2)nn1
inactive: viability, T/C (compound 0.0316 µM) 96.2% [middle of 13 runs] | viability, T/C (compound 0.1 µM) 99.3% [middle of 13 runs] | viability, T/C (compound 0.316 µM) 101% [middle of 13 runs] | viability, T/C (compound 1 µM) 101% [middle of 13 runs] | viability, T/C (compound 3.16 µM) 103% [middle of 13 runs] | viability, T/C (compound 10 µM) 113% [middle of 13 runs]
> 10 µM: IC50 [1]

C=CC(=O)N1CCN(c2nc(=O)n(-c3c(C)ccnc3C(C)C)c3nc(-c4c(O)cccc4F)c(F)cc23)C(C)C1 (centres undefined)
inactive: viability, T/C (compound 0.0316 µM) 105% and 104% and 110% | viability, T/C (compound 0.1 µM) 103% and 99.2% and 98% | viability, T/C (compound 0.316 µM) 108% (2×) and 115% | viability, T/C (compound 1 µM) 113% and 97.7% and 121% | viability, T/C (compound 3.16 µM) 118% and 115% and 113% | viability, T/C (compound 10 µM) 109% and 106% and 105%
> 10 µM: IC50 (curve of compound)

O=c1[nH]cc(F)c(=O)[nH]1
> 10 µM: IC50 (curve of compound)
inactive: viability, T/C (compound 0.0316 µM) 91.8% and 111% and 102% | viability, T/C (compound 0.1 µM) 130% and 91.7% and 100% | viability, T/C (compound 0.316 µM) 96.3% and 108% and 117% | viability, T/C (compound 1 µM) 101% and 114% and 94% | viability, T/C (compound 3.16 µM) 108% and 92.4% and 91% | viability, T/C (compound 10 µM) 70.4% and 70.2% and 62.4%

Cc1cccc(N(C)C(=O)C2C(O)CCN2c2nc(C)cc(C(F)(F)F)c2C#N)c1 (centres undefined)
inactive: viability, T/C (compound 0.0316 µM) 105% [middle of 13 runs] | viability, T/C (compound 0.1 µM) 102% [middle of 13 runs] | viability, T/C (compound 0.316 µM) 101% [middle of 13 runs] | viability, T/C (compound 1 µM) 104% [middle of 13 runs] | viability, T/C (compound 10 µM) 102% [middle of 13 runs]
> 10 µM: IC50 (compound alone, run of 11/27/2023) | IC50 [1]

CC1COCCN1c1cc(-c2ccnn2C)c2ccnc(-c3ccn[nH]3)c2n1 (centres undefined) + Nc1ccc(C#CCN(C(=O)Cc2ncc(C(F)(F)F)cc2C(F)(F)F)c2ccc(F)cc2)nn1
> 10 µM: IC50 (curve of first compound, second compound 0.0316 µM) | IC50 (curve of first compound, second compound 0.1 µM) | IC50 (curve of first compound, second compound 0.316 µM) | IC50 (curve of first compound, second compound 3.16 µM) | IC50 (curve of first compound, second compound 10 µM)
6.83 µM: IC50 (curve of first compound, second compound 1 µM)
inactive: viability, T/C (second compound 0.0316 µM, first compound 0.0316 µM) 88.4% | viability, T/C (second compound 0.0316 µM, first compound 0.1 µM) 91.3% | viability, T/C (second compound 0.0316 µM, first compound 0.316 µM) 80.4% | viability, T/C (second compound 0.0316 µM, first compound 1 µM) 63.5% | viability, T/C (second compound 0.0316 µM, first compound 3.16 µM) 52.9% | viability, T/C (second compound 0.0316 µM, first compound 10 µM) 50% | viability, T/C (second compound 0.1 µM, first compound 0.0316 µM) 90.9% | viability, T/C (second compound 0.1 µM, first compound 0.1 µM) 89% | viability, T/C (second compound 0.1 µM, first compound 0.316 µM) 75.4% | viability, T/C (second compound 0.1 µM, first compound 1 µM) 66.6% | viability, T/C (second compound 0.1 µM, first compound 3.16 µM) 52.8% | viability, T/C (second compound 0.1 µM, first compound 10 µM) 53.3% | viability, T/C (second compound 0.316 µM, first compound 0.0316 µM) 102% | viability, T/C (second compound 0.316 µM, first compound 0.1 µM) 90.6% | viability, T/C (second compound 0.316 µM, first compound 0.316 µM) 75.4% | viability, T/C (second compound 0.316 µM, first compound 1 µM) 58.9% | viability, T/C (second compound 0.316 µM, first compound 3.16 µM) 48.5% | viability, T/C (second compound 0.316 µM, first compound 10 µM) 53.9% | viability, T/C (second compound 1 µM, first compound 0.0316 µM) 101% | viability, T/C (second compound 1 µM, first compound 0.1 µM) 82.8% | viability, T/C (second compound 1 µM, first compound 0.316 µM) 71.4% | viability, T/C (second compound 1 µM, first compound 1 µM) 58% | viability, T/C (second compound 1 µM, first compound 3.16 µM) 52.2% | viability, T/C (second compound 1 µM, first compound 10 µM) 49.2% | viability, T/C (second compound 3.16 µM, first compound 0.0316 µM) 107% | viability, T/C (second compound 3.16 µM, first compound 0.1 µM) 92.7% | viability, T/C (second compound 3.16 µM, first compound 0.316 µM) 75.6% | viability, T/C (second compound 3.16 µM, first compound 1 µM) 55.3% | viability, T/C (second compound 3.16 µM, first compound 3.16 µM) 47.2% | viability, T/C (second compound 3.16 µM, first compound 10 µM) 57% | viability, T/C (second compound 10 µM, first compound 0.0316 µM) 114% | viability, T/C (second compound 10 µM, first compound 0.1 µM) 94.3% | viability, T/C (second compound 10 µM, first compound 0.316 µM) 80.9% | viability, T/C (second compound 10 µM, first compound 1 µM) 58% | viability, T/C (second compound 10 µM, first compound 3.16 µM) 64.5% | viability, T/C (second compound 10 µM, first compound 10 µM) 49.9%
